Measurements published in ChEMBL document CHEMBL1201862, “PubChem BioAssay data set” (2004).
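48-hour exposure; five concentrations; linearly interpolated endpoints. GI50 is the concentration that inhibits growth by half.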 Calls of active or inactive are those of the source. Rule as the data show it: active = GI50 up to about 1.1 µM and inactive = higher.

Tests used:
Assay in all cases: NCI-60 cell line screen, 48 h
[1] = test system: EKVX
[2] = test system: UO-31
[3] = test system: HCT-116
[4] = test system: SF-539
[5] = test system: OVCAR-5
[6] = test system: 786-0
[7] = test system: MOLT-4
[8] = test system: SNB-19
[9] = test system: M19-MEL
[10] = test system: TK-10
[11] = test system: LOX IMVI
[12] = test system: RXF 393
[13] = test system: NCI-H226
[14] = test system: SK-MEL-28
[15] = test system: NCI-H460
[16] = test system: KM12
[17] = test system: PC-3
[18] = test system: T47D
[19] = test system: MDA-N
[20] = test system: NCI-H522

Structure (SMILES) | GI50 [1] | GI50 [2] | GI50 [3] | GI50 [4] | GI50 [5] | GI50 [6] | GI50 [7] | GI50 [8] | GI50 [9] | GI50 [10] | GI50 [11] | GI50 [12] | GI50 [13] | GI50 [14] | GI50 [15] | GI50 [16] | GI50 [17] | GI50 [18] | GI50 [19] | GI50 [20]
Nc1nc(O)c2c(ncn2CCO)n1 | > 100 µM (inactive) | > 100 µM (inactive) | > 100 µM (inactive) | > 100 µM (inactive) | > 100 µM (inactive) | > 100 µM (inactive) | > 100 µM (inactive) | > 100 µM (inactive) | > 100 µM (inactive) | > 100 µM (inactive) | > 100 µM (inactive) | > 100 µM (inactive) | > 100 µM (inactive) | > 100 µM (inactive) | > 100 µM (inactive) | – | – | – | – | –
Cc1ccc(OCC2OC(n3cnc4nc(Cl)nc(Cl)c43)CC2Oc2ccc(C)cc2)cc1 (configuration not stated) | 11.2 µM (inactive) | 10.1 µM (inactive) | 4.55 µM (inactive) | 5.94 µM (inactive) | 17.2 µM (inactive) | 5.25 µM (inactive) | 2.01 µM (inactive) | 15.7 µM (inactive) | – | 13.8 µM (inactive) | 2 µM (inactive) | 3.85 µM (inactive) | 12 µM (inactive) | 3.65 µM (inactive) | 6.55 µM (inactive) | 8.73 µM (inactive) | 11.6 µM (inactive) | 6.19 µM (inactive) | 3.74 µM (inactive) | 1.84 µM (inactive)
Fc1ccc(C2SCc3nc4ccccc4n32)c(F)c1 (configuration not stated) | > 100 µM (inactive) | 42.3 µM (inactive) | 54 µM (inactive) | > 100 µM (inactive) | 67.6 µM (inactive) | > 100 µM (inactive) | 30.5 µM (inactive) | > 100 µM (inactive) | 65.5 µM (inactive) | 32.5 µM (inactive) | 81.5 µM (inactive) | 98.4 µM (inactive) | > 100 µM (inactive) | – | 54 µM (inactive) | 46.3 µM (inactive) | – | – | – | 30.1 µM (inactive)
O=C1c2ccccc2NC(=S)[C@@H]2CCCN12 | > 100 µM (inactive) | > 100 µM (inactive) | > 100 µM (inactive) | > 100 µM (inactive) | > 100 µM (inactive) | > 100 µM (inactive) | > 100 µM (inactive) | > 100 µM (inactive) | – | > 100 µM (inactive) | > 100 µM (inactive) | > 100 µM (inactive) | > 100 µM (inactive) | > 100 µM (inactive) | > 100 µM (inactive) | > 100 µM (inactive) | > 100 µM (inactive) | > 100 µM (inactive) | > 100 µM (inactive) | > 100 µM (inactive)
Cn1ccc(=NS(=O)(=O)c2ccccc2)cc1 | > 100 µM (inactive) | > 100 µM (inactive) | > 100 µM (inactive) | > 100 µM (inactive) | > 100 µM (inactive) | > 100 µM (inactive) | > 100 µM (inactive) | > 100 µM (inactive) | > 100 µM (inactive) | > 100 µM (inactive) | > 100 µM (inactive) | > 100 µM (inactive) | – | > 100 µM (inactive) | > 100 µM (inactive) | > 100 µM (inactive) | – | – | – | > 100 µM (inactive)
COc1ccccc1/C=C1\Sc2scc(-c3ccc(O)c(O)c3)[n+]2C1=O | 46.6 µM (inactive) | 18.7 µM (inactive) | 16.8 µM (inactive) | 20.7 µM (inactive) | 26.5 µM (inactive) | 15.2 µM (inactive) | 13.9 µM (inactive) | 35.8 µM (inactive) | – | 28.5 µM (inactive) | 18 µM (inactive) | 17.7 µM (inactive) | 27.9 µM (inactive) | 18.2 µM (inactive) | 18.8 µM (inactive) | 32 µM (inactive) | 28.2 µM (inactive) | 16.3 µM (inactive) | 23.9 µM (inactive) | 8.99 µM (inactive)
CC1NS(=O)(=O)N(C)C1=O (configuration not stated) | – | – | > 100 µM (inactive) | > 100 µM (inactive) | > 100 µM (inactive) | > 10 µM (inactive) | > 100 µM (inactive) | – | > 100 µM (inactive) | > 100 µM (inactive) | > 100 µM (inactive) | > 100 µM (inactive) | > 100 µM (inactive) | > 100 µM (inactive) | – | > 100 µM (inactive) | – | – | – | > 100 µM (inactive)
Cc1ccc(C2(O)CC(c3ccc([N+](=O)[O-])o3)=NN2C(=O)COc2ccccc2Cl)cc1 (configuration not stated) | 13.6 µM (inactive) | 12.5 µM (inactive) | 5.6 µM (inactive) | 17.4 µM (inactive) | 32.7 µM (inactive) | 5.75 µM (inactive) | 3.91 µM (inactive) | 14.8 µM (inactive) | 3.69 µM (inactive) | 35.7 µM (inactive) | 5.45 µM (inactive) | – | 50.5 µM (inactive) | 15.2 µM (inactive) | 5.73 µM (inactive) | 8.83 µM (inactive) | – | – | – | 13.1 µM (inactive)
CCOC(=O)C=C1CCC2(CC1)OCCO2 | – | > 100 µM (inactive) | > 100 µM (inactive) | > 100 µM (inactive) | > 100 µM (inactive) | > 100 µM (inactive) | > 100 µM (inactive) | > 100 µM (inactive) | > 100 µM (inactive) | > 100 µM (inactive) | > 100 µM (inactive) | > 100 µM (inactive) | > 100 µM (inactive) | > 100 µM (inactive) | > 100 µM (inactive) | > 100 µM (inactive) | – | – | – | > 100 µM (inactive)
COc1cc(CNc2cnc3cc(N)ccc3n2)cc(OC)c1OC | 76.7 µM (inactive) | 36.8 µM (inactive) | 18.7 µM (inactive) | 19.4 µM (inactive) | 68.2 µM (inactive) | 43.7 µM (inactive) | 15.9 µM (inactive) | 34.8 µM (inactive) | 16.5 µM (inactive) | 64.9 µM (inactive) | 23.9 µM (inactive) | – | – | > 100 µM (inactive) | 30.8 µM (inactive) | 66.4 µM (inactive) | – | – | – | 18.8 µM (inactive)
CCC1(O)CC(OC2CC(N(C)C)C(OC3CC(O)C(OC4CCC(=O)C(C)O4)C(C)O3)C(C)O2)c2c(cc3c(c2O)C(=O)c2c(O)ccc(O)c2C3=O)C1C(=O)OC (configuration not stated) | < 0.01 µM (active) | < 0.01 µM (active) | < 0.01 µM (active) | < 0.01 µM (active) | 0.0123 µM (active) | < 0.01 µM (active) | < 0.01 µM (active) | < 0.0127 µM (active) | – | < 0.01 µM (active) | < 0.01 µM (active) | < 0.01 µM (active) | < 0.01 µM (active) | < 0.01 µM (active) | < 0.01 µM (active) | < 0.01 µM (active) | < 0.01 µM (active) | < 0.01 µM (active) | < 0.01 µM (active) | < 0.01 µM (active)
COc1ccc2nc3c(C(=O)NCCN(C)C)cccc3nc2c1 | 3.86 µM (inactive) | 4.89 µM (inactive) | 3.32 µM (inactive) | 2.51 µM (inactive) | 11.2 µM (inactive) | 7 µM (inactive) | 3.63 µM (inactive) | 6.21 µM (inactive) | 5.05 µM (inactive) | 3.37 µM (inactive) | 3.34 µM (inactive) | – | 6.85 µM (inactive) | 8.3 µM (inactive) | – | 5.98 µM (inactive) | – | – | – | –
N#Cc1c2nc3ccccc3nc2n2ccccc12 | > 100 µM (inactive) | > 100 µM (inactive) | > 100 µM (inactive) | > 100 µM (inactive) | > 100 µM (inactive) | > 100 µM (inactive) | > 100 µM (inactive) | > 100 µM (inactive) | > 100 µM (inactive) | > 100 µM (inactive) | > 100 µM (inactive) | – | – | > 100 µM (inactive) | > 100 µM (inactive) | > 100 µM (inactive) | – | – | – | > 100 µM (inactive)
CCOC(=O)CN.CCOC(=O)Nc1ccc(S(=O)(=O)OC)cc1.CCOC(=O)Nc1ccc(S(=O)(=O)OC)cc1 | > 50 µM (inactive) | > 50 µM (inactive) | > 50 µM (inactive) | > 50 µM (inactive) | > 50 µM (inactive) | > 50 µM (inactive) | > 50 µM (inactive) | > 50 µM (inactive) | > 50 µM (inactive) | > 50 µM (inactive) | > 50 µM (inactive) | – | > 50 µM (inactive) | > 50 µM (inactive) | 17.8 µM (inactive) | > 50 µM (inactive) | – | – | – | –
C#CCOCn1cnc2c(Sc3c([N+](=O)[O-])ncn3C)ncnc21 | > 100 µM (inactive) | 91.8 µM (inactive) | – | – | > 100 µM (inactive) | > 100 µM (inactive) | – | > 100 µM (inactive) | > 100 µM (inactive) | > 100 µM (inactive) | > 100 µM (inactive) | > 100 µM (inactive) | > 100 µM (inactive) | > 100 µM (inactive) | > 100 µM (inactive) | > 100 µM (inactive) | – | – | – | 48.3 µM (inactive)
CC12OC3CC(O1)C1(C=O)C4CCC5(C)C(c6ccc(=O)oc6)CCC5(O)C4CCC1(C3)O2 (configuration not stated) | – | 0.304 µM (active) | 0.0537 µM (active) | 0.102 µM (active) | 0.383 µM (active) | 0.122 µM (active) | 0.0344 µM (active) | 0.573 µM (active) | 0.258 µM (active) | 0.143 µM (active) | 0.177 µM (active) | 0.104 µM (active) | 0.417 µM (active) | 0.491 µM (active) | 0.0518 µM (active) | 0.379 µM (active) | – | – | – | 0.0479 µM (active)
Cc1ccc(O)c(C(=O)CCCC(=O)c2cc(C)ccc2O)c1 | > 100 µM (inactive) | 44.9 µM (inactive) | – | > 100 µM (inactive) | > 100 µM (inactive) | 38.3 µM (inactive) | > 100 µM (inactive) | 46.1 µM (inactive) | > 100 µM (inactive) | 48.1 µM (inactive) | 57.1 µM (inactive) | – | > 100 µM (inactive) | > 100 µM (inactive) | > 100 µM (inactive) | > 100 µM (inactive) | – | – | – | 63.8 µM (inactive)
